Data as given in US11046658B2, “Aminopyrazine derivatives as PI3K-γ inhibitors” (Incyte Corporation, priority 2018, dated 2021).
Counter-ions that a name gives are not always drawn.

Each compound was assayed on Phosphorylated Ribosomal Protein S6 (RPS6) in THP-1 cells (assay: THP-1 RPS6 ELISA Assay). Details: Homo sapiens; Table A1; THP-1 cells, 10 nM MCP-1; read-out: PI3Kγ_THP1_RPS6_ELISA IC50.
Type: cell-based, Human
Procedure: To measure the Phosphorylated Ribosomal Protein S6 (RPS6) in cell lysates, THP-1 cells (Human Acute Monocytic Leukemia) are purchased from ATCC (Manassas, Va.) and maintained in RPMI with 10% FBS (Gibco/Life Technologies, Carlsbad, Calif.). For the assay, THP-1 cells are serum starved overnight in RPMI, then plated in RPMI (2×10^5 cells/well in 90 μL) into 96-well flat-bottom tissue culture treated plates (Corning, Corning, N.Y.), in the presence or absence of a concentration range of test compounds. Covered plates are incubated for 2 hours at 37° C., 5% CO2 then treated with or without 10 nM MCP-1(MYBioSource, San Diego, Calif.) for 15 minutes at 37° C., 5% CO2. Plates are centrifuged at 1600 RPM and supernatants are removed. Cells are lysed in Lysis Buffer (Cell Signaling, Danvers, Mass.) with Protease Inhibitor (Calbiochem/EMD, Germany), PMSF (Sigma, St Louis Mo.), HALTS (Thermo Fisher, Rockford, Ill.) for 30 min on wet ice. Cell lysates are frozen at −80 OC before testing. The lysates are tested in the Human/Mouse/Rat Phospho-RPS6 ELISA (R&D Systems, Inc. Minn, Minn.). The plate is measured using a microplate reader (SpectraMax M5—Molecular Devices, LLC Sunnyvale, Calif.) set to 450 nm with a wavelength correction of 540. IC50 determination is performed by fitting the curve of inhibitor percent inhibition versus the log of the inhibitor concentration using the GraphPad Prism 5.0 software.

SMILES | IC50
Cc1ccc(C(O)(C(N)=O)C(F)(F)F)cc1-c1cnc(N)c(C(=O)NCC(O)C(F)(F)F)n1 (single isomer, unassigned) [Example 43A, 3-amino-6-(5-(3-amino-1,1,1-trifluoro-2-hydroxy-3-oxopropan-2-yl)-2-methylphenyl)-N-(3,3,3-trifluoro-2-hydroxypropyl)pyrazine-2-carboxamide] | < 100 nM
Cc1ccc(C(O)(C(N)=O)C(F)(F)F)cc1-c1cnc(N)c(C(=O)NCC2(C#N)CC2)n1 (centres unmarked) [Example 4, 3-amino-6-(5-(3-amino-1,1,1-trifluoro-2-hydroxy-3-oxopropan-2-yl)-2-methylphenyl)-N-((1-cyanocyclopropyl)methyl)pyrazine-2-carboxamide trifluoroacetate] | < 100 nM
Cc1ccc(C(O)(C(N)=O)C(F)(F)F)cc1-c1cnc(N)c(C(=O)NC(C)C)n1 (centres unmarked) [Example 5, 3-Amino-6-(5-(3-amino-1,1,1-trifluoro-2-hydroxy-3-oxopropan-2-yl)-2-methylphenyl)-N-isopropylpyrazine-2-carboxamide trifluoroacetate] | < 100 nM
CCNC(=O)c1nc(-c2cc(C(O)(C(N)=O)C(F)(F)F)ccc2C)cnc1N (centres unmarked) [Example 7, 3-Amino-6-(5-(3-amino-1,1,1-trifluoro-2-hydroxy-3-oxopropan-2-yl)-2-methylphenyl)-N-ethylpyrazine-2-carboxamide trifluoroacetate] | < 100 nM
Cc1ccc(C(O)(C(N)=O)C(F)(F)F)cc1-c1cnc(N)c(C(=O)N[C@@H](C)CC#N)n1 (stereo partly drawn) [Example 8, 3-amino-6-(5-(3-amino-1,1,1-trifluoro-2-hydroxy-3-oxopropan-2-yl)-2-methylphenyl)-N-((S)-1-cyanopropan-2-yl)pyrazine-2-carboxamide trifluoroacetate] | < 100 nM
Cc1ccc(C(O)(C(N)=O)C(F)(F)F)cc1-c1cnc(N)c(C(=O)N[C@H]2CCOC2)n1 (stereo partly drawn) [Example 11, 3-amino-6-(5-(3-amino-1,1,1-trifluoro-2-hydroxy-3-oxopropan-2-yl)-2-methylphenyl)-N-((S)-tetrahydrofuran-3-yl)pyrazine-2-carboxamide trifluoroacetate] | < 100 nM
Cc1ccc(C(O)(C(N)=O)C(F)(F)F)cc1-c1cnc(N)c(C(=O)NCCC#N)n1 (centres unmarked) [Example 14, 3-amino-6-(5-(3-amino-1,1,1-trifluoro-2-hydroxy-3-oxopropan-2-yl)-2-methylphenyl)-N-(2-cyanoethyl)pyrazine-2-carboxamide trifluoroacetate] | < 100 nM
CC[C@@H](CC#N)NC(=O)c1nc(-c2cc(C(O)(C(N)=O)C(F)(F)F)ccc2C)cnc1N (stereo partly drawn) [Example 20, 3-amino-6-(5-(3-amino-1,1,1-trifluoro-2-hydroxy-3-oxopropan-2-yl)-2-methylphenyl)-N-((S)-1-cyanobutan-2-yl)pyrazine-2-carboxamide trifluoroacetate] | < 100 nM

The remaining lines, values ahead:

IC50 | SMILES
< 100 nM | Cc1ccc(C(O)(C(N)=O)C(F)(F)F)cc1-c1cnc(N)c(C(=O)NC2CC3CCC2O3)n1 (single isomer, unassigned) [Example 29, 3-amino-6-(5-(3-amino-1,1,1-trifluoro-2-hydroxy-3-oxopropan-2-yl)-2-methylphenyl)-N-(7-oxabicyclo[2.2.1]heptan-2-yl)pyrazine-2-carboxamide]
< 100 nM | Cc1ccc(C(O)(C(N)=O)C(F)(F)F)cc1-c1cnc(N)c(C(=O)NCC(C)(C)O)n1 (centres unmarked) [Example 1, 3-Amino-6-(5-(3-amino-1,1,1-trifluoro-2-hydroxy-3-oxopropan-2-yl)-2-methylphenyl)-N-(2-hydroxy-2-methylpropyl)pyrazine-2-carboxamide]
< 100 nM | Cc1ccc(C(O)(C(N)=O)C(F)(F)F)cc1-c1cnc(N)c(C(=O)NC2CCOCC2)n1 (centres unmarked) [Example 2, 3-amino-6-(5-(3-amino-1,1,1-trifluoro-2-hydroxy-3-oxopropan-2-yl)-2-methylphenyl)-N-(tetrahydro-2H-pyran-4-yl)pyrazine-2-carboxamide trifluoroacetate]
< 100 nM | Cc1ccc(C(O)(C(N)=O)C(F)(F)F)cc1-c1cnc(N)c(C(=O)NC2CCC(F)(F)CC2)n1 (centres unmarked) [Example 6, 3-amino-6-(5-(3-amino-1,1,1-trifluoro-2-hydroxy-3-oxopropan-2-yl)-2-methylphenyl)-N-(4,4-difluorocyclohexyl)pyrazine-2-carboxamide trifluoroacetate]
< 100 nM | Cc1ccc(C(O)(C(N)=O)C(F)(F)F)cc1-c1cnc(N)c(C(=O)N[C@@H]2CCCOC2)n1 (stereo partly drawn) [Example 9, 3-amino-6-(5-(3-amino-1,1,1-trifluoro-2-hydroxy-3-oxopropan-2-yl)-2-methylphenyl)-N-((R)-tetrahydro-2H-pyran-3-yl)pyrazine-2-carboxamide trifluoroacetate]
< 100 nM | Cc1ccc(C(O)(C(N)=O)C(F)(F)F)cc1-c1cnc(N)c(C(=O)N[C@H]2CCCOC2)n1 (stereo partly drawn) [Example 10, 3-amino-6-(5-(3-amino-1,1,1-trifluoro-2-hydroxy-3-oxopropan-2-yl)-2-methylphenyl)-N-((S)-tetrahydro-2H-pyran-3-yl)pyrazine-2-carboxamide trifluoroacetate]
< 100 nM | Cc1ccc(C(O)(C(N)=O)C(F)(F)F)cc1-c1cnc(N)c(C(=O)N[C@@H](C)CO)n1 (stereo partly drawn) [Example 12, 3-amino-6-(5-(3-amino-1,1,1-trifluoro-2-hydroxy-3-oxopropan-2-yl)-2-methylphenyl)-N-((S)-1-hydroxypropan-2-yl)pyrazine-2-carboxamide]
< 100 nM | Cc1ccc(C(O)(C(N)=O)C(F)(F)F)cc1-c1cnc(N)c(C(=O)NC(C)(C)CO)n1 (centres unmarked) [Example 13, 3-Amino-6-(5-(3-amino-1,1,1-trifluoro-2-hydroxy-3-oxopropan-2-yl)-2-methylphenyl)-N-(1-hydroxy-2-methylpropan-2-yl)pyrazine-2-carboxamide]
< 100 nM | Cc1ccc(C(O)(C(N)=O)C(F)(F)F)cc1-c1cnc(N)c(C(=O)NCC(C)(C)C#N)n1 (centres unmarked) [Example 15, 3-amino-6-(5-(3-amino-1,1,1-trifluoro-2-hydroxy-3-oxopropan-2-yl)-2-methylphenyl)-N-(2-cyano-2-methylpropyl)pyrazine-2-carboxamide trifluoroacetate]
< 100 nM | Cc1ccc(C(O)(C(N)=O)C(F)(F)F)cc1-c1cnc(N)c(C(=O)NCC2(C#N)CCC2)n1 (centres unmarked) [Example 16, 3-amino-6-(5-(3-amino-1,1,1-trifluoro-2-hydroxy-3-oxopropan-2-yl)-2-methylphenyl)-N-((1-cyanocyclobutyl)methyl)pyrazine-2-carboxamide trifluoroacetate]

Same assay, conditions: Table A1; THP-1 cells, 10 nM MCP-1; read-out: PI3Kγ_THP1_RPS6_ELISA IC50

IC50 | SMILES
< 100 nM | Cc1ccc(C(O)(C(N)=O)C(F)(F)F)cc1-c1cnc(N)c(C(=O)NC2CC3CCC2O3)n1 (single isomer, unassigned) [Example 30, 3-amino-6-(5-(3-amino-1,1,1-trifluoro-2-hydroxy-3-oxopropan-2-yl)-2-methylphenyl)-N-(7-oxabicyclo[2.2.1]heptan-2-yl)pyrazine-2-carboxamide]
< 100 nM | Cc1ccc(C(O)(C(N)=O)C(F)(F)F)cc1-c1cnc(N)c(C(=O)NCC(O)C(F)(F)F)n1 (single isomer, unassigned) [Example 43B, 3-amino-6-(5-(3-amino-1,1,1-trifluoro-2-hydroxy-3-oxopropan-2-yl)-2-methylphenyl)-N-(3,3,3-trifluoro-2-hydroxypropyl)pyrazine-2-carboxamide]
